Literature values, collected in patent US6872696B2, “Particle with substituted polyvinyl alcohol coating” (Genencor International, Inc., priority 2000, dated 2005).

Details: neutral unreacted compound in water, 25 degrees C

Solubility g/100 ml H2O | Compound
infinite | OCCS [2-mercaptoethanol]
0.67 g/100 ml H2O | CCS [ethanethiol]
infinite | O=C(O)/C=C\C(=O)O [maleic]
